Read-outs that look alike come from different tables or passages of the source.
Experiments:
human tumor cell lines = format: cell-based; conditions: for GI50: Homo sapiens; for cytotoxicity against tumor cells (in words): cancer cell line panel
MALME-3M = assay: in vitro melanoma cell growth inhibition (NCI screen)
UACC-62 = assay: as above
K-562 = assay: in vitro leukemia cell growth inhibition (NCI screen)
MOLT-4 = assay: as above
COLO-205 = assay: in vitro colon cancer cell growth inhibition (NCI screen)
HCT-116 = assay: as above
HCT-15 = assay: as above
SW 620 = assay: as above
ACHN = assay: in vitro renal cancer cell growth inhibition (NCI screen)
RXF-393 = assay: as above
TK-10 = assay: as above
IGROV1 = assay: in vitro ovarian cancer cell growth inhibition (NCI screen)
OVCAR-3 = assay: as above
MCF-7 = assay: in vitro breast cancer cell growth inhibition (NCI screen)
MCF7/ADR-RES = assay: as above
MDA-MB-435 = assay: as above
MDA-N = assay: as above
BT-549 = assay: as above
T-47D = assay: as above
PC-3 = assay: in vitro prostate cancer cell growth inhibition (NCI screen)
HOP-92 = assay: in vitro non-small cell lung cancer cell growth inhibition (NCI screen)
NCI-H266 = assay: as above
NCI-H23 = assay: as above
NCI-H522 = assay: as above
M14 = assay: in vitro melanoma cell growth inhibition (NCI screen)
UACC-257 = assay: as above
CCRF-CEM = assay: in vitro leukemia cell growth inhibition (NCI screen)
HL-60(TB) = assay: as above
RPMI-8226 = assay: as above
SK-MEL-5 = assay: in vitro melanoma cell growth inhibition (NCI screen)
SR = assay: in vitro leukemia cell growth inhibition (NCI screen)
SK-OV-3 = assay: in vitro ovarian cancer cell growth inhibition (NCI screen)
LOX1MVI = assay: in vitro melanoma cell growth inhibition (NCI screen)
M19-MEL = assay: as above
SNB-75 = assay: in vitro CNS cancer cell growth inhibition (NCI screen)
XF-498 = assay: as above
HT 29 = assay: in vitro colon cancer cell growth inhibition (NCI screen)
SN12C = assay: in vitro renal cancer cell growth inhibition (NCI screen)
UO-31 = assay: as above
NCI-H460 = assay: in vitro non-small cell lung cancer cell growth inhibition (NCI screen)
SK-MEL-28 = assay: in vitro melanoma cell growth inhibition (NCI screen)
U 251 = assay: in vitro CNS cancer cell growth inhibition (NCI screen)
KM 12 = assay: in vitro colon cancer cell growth inhibition (NCI screen)
SF-539 = assay: in vitro CNS cancer cell growth inhibition (NCI screen)
OVCAR-4 = assay: in vitro ovarian cancer cell growth inhibition (NCI screen); conditions: OVACR-4
[1] = cancer cell panel, general / most cell lines, read-out: logGI50 values in the cancer cell line panel (converted)

Compound	cytotoxicity log GI50 (MALME-3M) [M]	cytotoxicity log GI50 (UACC-62) [M]	cytotoxicity log GI50 (K-562) [M]	cytotoxicity log GI50 (MOLT-4) [M]	cytotoxicity log GI50 (COLO-205) [M]	cytotoxicity log GI50 (HCT-116) [M]	cytotoxicity log GI50 (HCT-15) [M]	cytotoxicity log GI50 (SW 620) [M]	cytotoxicity log GI50 (ACHN) [M]	cytotoxicity log GI50 (RXF-393) [M]	cytotoxicity log GI50 (OVCAR-3) [M]	cytotoxicity log GI50 (MCF7/ADR-RES) [M]	cytotoxicity log GI50 (BT-549) [M]	cytotoxicity log GI50 (HOP-92) [M]	cytotoxicity log GI50 (NCI-H23) [M]	cytotoxicity log GI50 (NCI-H522) [M]	cytotoxicity log GI50 (UACC-257) [M]	cytotoxicity log GI50 (CCRF-CEM) [M]	cytotoxicity log GI50 (HL-60(TB)) [M]	cytotoxicity log GI50 (SK-MEL-5) [M]	further results
O=C(NC1=C(Cl)C(=O)c2ccccc2C1=O)c1ccccc1 [Compound 2e, 2-Benzoylamino-3-chloro-1,4-naphthoquinone]	-4.77	-4.62	-4.66	-4.70	-4.81	-4.76	-4.60	-4.76	-4.68	-4.72	-4.72	-4.73	-4.70	-4.60	-4.62	-4.62	–	–	–	–	GI50 (human tumor cell lines; [1]): 10000 to 100000 nM; cytotoxicity log GI50 (TK-10): -4.64 M; cytotoxicity log GI50 (IGROV1): -4.66 M; cytotoxicity log GI50 (MCF-7): -4.72 M; cytotoxicity log GI50 (MDA-MB-435): -4.72 M; cytotoxicity log GI50 (MDA-N): -5.30 M; cytotoxicity log GI50 (T-47D): -4.66 M; cytotoxicity log GI50 (PC-3): -4.60 M; cytotoxicity log GI50 (NCI-H266): -4.61 M
COc1ccc(-n2c(CCCC(=O)O)nc3c2C(=O)c2ccccc2C3=O)cc1 [Compound 59]	-4.82	-4.63	–	–	-4.43	-4.44	-4.35	–	–	–	-4.48	–	-5.06	-4.69	-4.36	-4.59	-4.56	-4.44	-4.51	–	cytotoxicity log GI50 (M14): -4.81 M; cytotoxicity log GI50 (RPMI-8226): -4.44 M; cytotoxicity log GI50 (MCF-7): -4.49 M; cytotoxicity log GI50 (MDA-MB-435): -4.58 M; cytotoxicity log GI50 (MDA-N): -4.50 M
CCn1c(CCl)nc2c1C(=O)c1ccccc1C2=O [Compound 22]	-5.98	-5.89	–	-6.45	–	–	–	–	–	–	–	–	–	–	–	-6.53	–	-6.76	–	-6.38	GI50 (human tumor cell lines; cancer cells, printed as GI50, log scale values, read-out: GI50 values): 158 to 1000 nM; cytotoxicity against tumor cells (in words) (human tumor cell lines): highly active against many of the cancer cell types tested; cytotoxicity log GI50 (SR): -6.40 M; cytotoxicity log GI50 (SK-OV-3): -6.29 M; cytotoxicity log GI50 (NCI-H266): -6.65 M
Cc1nc2c(n1C(C)(C)C)C(=O)c1ccccc1C2=O [Compound 8]	-4.35	-4.35	-4.30	-4.31	–	–	–	–	-4.31	–	-4.41	–	–	-5.03	-4.42	-4.36	-4.37	–	-4.34	-4.41	cytotoxicity log GI50 (LOX1MVI): -4.38 M; cytotoxicity log GI50 (M19-MEL): -4.61 M; cytotoxicity log GI50 (SR): -4.35 M; cytotoxicity log GI50 (SNB-75): -4.50 M; cytotoxicity log GI50 (XF-498): -4.36 M; cytotoxicity log GI50 (HT 29): -4.36 M; cytotoxicity log GI50 (SN12C): -4.30 M; cytotoxicity log GI50 (UO-31): -4.43 M; cytotoxicity log GI50 (NCI-H460): -4.44 M
COc1ccc(C(=O)NC2=C(Cl)C(=O)c3ccccc3C2=O)cc1 [Compound 2g]	-5.92	-6.12	-5.85	–	-5.76	-6.36	-6.37	-6.17	-6.44	-6.23	-5.79	-5.85	-5.77	-5.82	–	-6.42	-5.79	-6.10	-6.35	-5.89	GI50 (human tumor cell lines; [1]): ~1000 nM; cytotoxicity log GI50 (M14): -6.20 M; cytotoxicity log GI50 (SK-MEL-28): -6.17 M; cytotoxicity log GI50 (RPMI-8226): -6.02 M; cytotoxicity log GI50 (U 251): -5.83 M; cytotoxicity log GI50 (KM 12): -5.82 M; cytotoxicity log GI50 (T-47D): -5.90 M; cytotoxicity log GI50 (PC-3): -5.90 M; cytotoxicity log GI50 (NCI-H266): -5.87 M
COc1cc(OC)cc(C(=O)NC2=C(Cl)C(=O)c3ccccc3C2=O)c1 [Compound 2h]	–	-6.82	-6.39	–	–	-6.35	-6.38	-6.24	-6.39	-6.28	–	-5.83	-5.81	–	–	-6.49	–	-6.70	-7.04	-5.89	cytotoxicity against tumor cells (in words) (human tumor cell lines): similarly potent cytotoxic activity; cytotoxicity log GI50 (M14): -6.26 M; cytotoxicity log GI50 (SK-MEL-28): -5.85 M; cytotoxicity log GI50 (RPMI-8226): -6.31 M; cytotoxicity log GI50 (SR): -6.33 M; cytotoxicity log GI50 (KM 12): -5.92 M; cytotoxicity log GI50 (IGROV1): -5.86 M; cytotoxicity log GI50 (T-47D): -5.85 M; cytotoxicity log GI50 (PC-3): -6.24 M
CC(=O)NC1=C(NCCN(C)C)C(=O)c2ccccc2C1=O [Compound 39]	-5.12	-4.98	-4.91	–	-5.00	-5.08	-5.02	–	–	–	–	–	–	–	-4.94	-4.99	-5.03	–	-5.01	-5.14	cytotoxicity log GI50 (LOX1MVI): -4.90 M; cytotoxicity log GI50 (M19-MEL): -5.12 M; cytotoxicity log GI50 (SF-539): -4.93 M; cytotoxicity log GI50 (U 251): -4.99 M; cytotoxicity log GI50 (SN12C): -4.98 M; cytotoxicity log GI50 (OVCAR-4): -5.05 M; cytotoxicity log GI50 (NCI-H460): -4.89 M

— patent US5789431A, “Naphthoquinone antitumor compound and method” (The University of North Carolina at Chapel Hill, priority 1996, dated 1998)
